The source of these data is patent US11845760B2, “PRMT5 inhibitors” (AMGEN INC., priority 2020, dated 2023).

Molecules are shown by their SMILES. Where two headings read alike, the source gives them in different places.

For one assay, the system named is HCT116 MTAP null cells. As to the kind of experiment: HCT116 MTAP null cell line proliferation (CellTiter-Glo cell viability, 6 days). Format: cell-based. Particulars: HCT116 MTAP null cells, 6 days of treatment, CellTiter-Glo cell viability, read-out: HCT-116 MTAP null IC50. In short, it runs like this:
(§1)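 Viability by CellTiter-Glo after 6 days' drug exposure in wild-type HCT116 and its MTAP-null knockout, with DMSO-only control. Dosing used either 1:3 steps (top 1 or 10 μM) or 22 points in 1:2 steps (top 10 or 50 μM). IC50 taken where the fitted curve crosses 50% of control.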
On the technique in general: Cellular ATP, detected with luciferase, serves as a proxy for viable cell number.

The next assay has as its system HCT116 WT cells. As to the kind of experiment: HCT116 WT cell line proliferation (CellTiter-Glo cell viability, 6 days). Format: cell-based. Conditions: HCT116 WT (parent) cells, 6 days of treatment, CellTiter-Glo cell viability, read-out: HCT-116 WT IC50. In short, it runs like this: as §1

On to `C[C@H]1COC[C@@H](c2ccc(OC(F)(F)F)cn2)N1C(=O)c1ccc2nc(N)c3c(c2c1)COC3` (racemic) [Example 376, (4-amino-1,3-dihydrofuro[3,4-c]quinolin-8-yl)((3R,5S)-3-methyl-5-(5-(trifluoromethoxy)-2-pyridinyl)-4-morpholinyl)methanone and (4-amino-1,3-dihydrofuro[3,4-c]quinolin-8-yl)((3S,5R)-3-methyl-5-(5-(trifluoromethoxy)-2-pyridinyl)-4-morpholinyl)methanone], for which the half-maximal inhibitory concentration (IC50) (in general, the concentration needed to halve the response being measured) in the assay on HCT116 MTAP null cells (HCT116-MTAP null, 144 h) was 29 nM; in the assay with HCT116 WT cells (Homo sapiens, HCT-116, 144 h), 1220 nM.
As to `C[C@H]1OCc2c1c(N)nc1ccc(C(=O)N3[C@@H](C)COC[C@H]3c3ccc(OC(F)(F)F)cn3)cc21` (racemic) [Example 377, ((3R)-4-amino-3-methyl-1,3-dihydrofuro[3,4-c]quinolin-8-yl)((3R,5S)-3-methyl-5-(5-(trifluoromethoxy)-2-pyridinyl)-4-morpholinyl)methanone and ((3R)-4-amino-3-methyl-1,3-dihydrofuro[3,4-c]quinolin-8-yl)((3S,5R)-3-methyl-5-(5-(trifluoromethoxy)-2-pyridinyl)-4-morpholinyl)methanone], the IC50 was 37 nM in the assay on HCT116 MTAP null cells (HCT116-MTAP null, 144 h) and 1110 nM with HCT116 WT cells (Homo sapiens, HCT-116, 144 h).
On to `C[C@H]1COC[C@@H](c2ccc(OC(F)(F)F)cn2)N1C(=O)c1cc2c3c(c(N)nc2cc1F)COC3` (racemic) [Example 378, (4-amino-7-fluoro-1,3-dihydrofuro[3,4-c]quinolin-8-yl)((3R,5S)-3-methyl-5-(5-(trifluoromethoxy)-2-pyridinyl)-4-morpholinyl)methanone and (4-amino-7-fluoro-1,3-dihydrofuro[3,4-c]quinolin-8-yl)((3S,5R)-3-methyl-5-(5-(trifluoromethoxy)-2-pyridinyl)-4-morpholinyl)methanone], for which the half-maximal inhibitory concentration (IC50) with HCT116 MTAP null cells (HCT116-MTAP null, 144 h) stood at 15 nM; with HCT116 WT cells (Homo sapiens, HCT-116, 144 h), 190 nM.
Consider `C[C@@H]1OCc2c1c(N)nc1cnc(C(=O)N3[C@H](C)COC[C@@H]3c3ccc(OC(F)(F)F)cn3)cc21` (racemic) [Example 379, ((3S)-4-amino-3-methyl-1,3-dihydrofuro[3,4-c][1,7]naphthyridin-8-yl)((3R,5S)-3-methyl-5-(5-(trifluoromethoxy)-2-pyridinyl)-4-morpholinyl)methanone and ((3S)-4-amino-3-methyl-1,3-dihydrofuro[3,4-c][1,7]naphthyridin-8-yl)((3S,5R)-3-methyl-5-(5-(trifluoromethoxy)-2-pyridinyl)-4-morpholinyl)methanone], for which the IC50 is 927 nM in the assay on HCT116 MTAP null cells (HCT116-MTAP null, 144 h) and over 10000 nM with HCT116 WT cells (Homo sapiens, HCT-116, 144 h).
Take `C[C@@H]1COC[C@H](c2ccc(OC(F)(F)F)cn2)N1C(=O)c1cc2c3c(c(N)nc2cn1)[C@@H](C)OC3` (racemic) [Example 380, ((3R)-4-amino-3-methyl-1,3-dihydrofuro[3,4-c][1,7]naphthyridin-8-yl)((3R,5S)-3-methyl-5-(5-(trifluoromethoxy)-2-pyridinyl)-4-morpholinyl)methanone and ((3R)-4-amino-3-methyl-1,3-dihydrofuro[3,4-c][1,7]naphthyridin-8-yl)((3S,5R)-3-methyl-5-(5-(trifluoromethoxy)-2-pyridinyl)-4-morpholinyl)methanone]: the IC50 in the assay with HCT116 MTAP null cells (HCT116-MTAP null, 144 h) stood at 48 nM; with HCT116 WT cells (Homo sapiens, HCT-116, 144 h), 906 nM.
As to `C[C@@H]1COC[C@H](c2ccc(OC(F)F)nn2)N1C(=O)c1cc2c3c(c(N)nc2cn1)COC3` (racemic) [Example 381, (4-amino-1,3-dihydrofuro[3,4-c][1,7]naphthyridin-8-yl)((3R,5S)-3-(6-(difluoromethoxy)-3-pyridazinyl)-5-methyl-4-morpholinyl)methanone and (4-amino-1,3-dihydrofuro[3,4-c][1,7]naphthyridin-8-yl)((3S,5R)-3-(6-(difluoromethoxy)-3-pyridazinyl)-5-methyl-4-morpholinyl)methanone], the IC50 in the assay on HCT116 MTAP null cells was 84 nM; in the assay with HCT116 WT cells, 2570 nM.
Turning to `Nc1nc2cnc(C(=O)N3CCOCC3c3ccc(OC(F)F)c(F)c3)cc2c2c1COC2` (racemic) [Example 383, (4-amino-1,3-dihydrofuro[3,4-c][1,7]naphthyridin-8-yl)((3R)-3-(4-(difluoromethoxy)-3-fluorophenyl)-4-morpholinyl)methanone and (4-amino-1,3-dihydrofuro[3,4-c][1,7]naphthyridin-8-yl)((3S)-3-(4-(difluoromethoxy)-3-fluorophenyl)-4-morpholinyl)methanone], the figures for the half-maximal inhibitory concentration (IC50) in the assay with HCT116 MTAP null cells and with HCT116 WT cells were 437 nM and 13900 nM, respectively.
Turning to `Nc1nc2cc(Cl)c(C(=O)N3CCOCC3c3ccc(OC(F)F)nc3)cc2c2c1COC2` (racemic) [Example 384, (4-amino-7-chloro-1,3-dihydrofuro[3,4-c]quinolin-8-yl)((3R)-3-(6-(difluoromethoxy)-3-pyridinyl)-4-morpholinyl)methanone and (4-amino-7-chloro-1,3-dihydrofuro[3,4-c]quinolin-8-yl)((3S)-3-(6-(difluoromethoxy)-3-pyridinyl)-4-morpholinyl)methanone], the figures for the IC50 in the assay on HCT116 MTAP null cells and in the assay with HCT116 WT cells were 23 nM and 1680 nM, respectively.
`Nc1nc2cc(F)c(C(=O)N3CCOCC3c3ccc(OC(F)F)nc3)cc2c2c1COC2` (racemic) [Example 385, (4-amino-7-fluoro-1,3-dihydrofuro[3,4-c]quinolin-8-yl)((3R)-3-(6-(difluoromethoxy)-3-pyridinyl)-4-morpholinyl)methanone and (4-amino-7-fluoro-1,3-dihydrofuro[3,4-c]quinolin-8-yl)((3S)-3-(6-(difluoromethoxy)-3-pyridinyl)-4-morpholinyl)methanone]: the IC50 in the assay with HCT116 MTAP null cells came to 151 nM; in the assay with HCT116 WT cells, 5830 nM.
Regarding `Nc1nc2cnc(C(=O)N3CCOCC3c3ccc(OC(F)(F)F)cc3F)cc2c2c1COC2` (racemic) [Example 386, (4-amino-1,3-dihydrofuro[3,4-c][1,7]naphthyridin-8-yl)((3R)-3-(2-fluoro-4-(trifluoromethoxy)phenyl)-4-morpholinyl)methanone and (4-amino-1,3-dihydrofuro[3,4-c][1,7]naphthyridin-8-yl)((3S)-3-(2-fluoro-4-(trifluoromethoxy)phenyl)-4-morpholinyl)methanone], the IC50 is 344 nM with HCT116 MTAP null cells and 5020 nM in the assay on HCT116 WT cells.
Consider `Nc1nc2cnc(C(=O)N3CCOCC3c3ccc(C(F)(F)F)cc3F)cc2c2c1COC2` (racemic) [Example 387, (4-amino-1,3-dihydrofuro[3,4-c][1,7]naphthyridin-8-yl)((3R)-3-(2-fluoro-4-(trifluoromethyl)phenyl)-4-morpholinyl)methanone and (4-amino-1,3-dihydrofuro[3,4-c][1,7]naphthyridin-8-yl)((3S)-3-(2-fluoro-4-(trifluoromethyl)phenyl)-4-morpholinyl)methanone], for which the IC50 in the assay on HCT116 MTAP null cells amounted to 193 nM; in the assay on HCT116 WT cells, 7250 nM.
`N#Cc1ccc(C2COCCN2C(=O)c2cc3c4c(c(N)nc3cn2)COC4)cc1` (racemic) [Example 388, 4-((3R)-4-((4-amino-1,3-dihydrofuro[3,4-c][1,7]naphthyridin-8-yl)carbonyl)-3-morpholinyl)benzonitrile and 4-((3S)-4-((4-amino-1,3-dihydrofuro[3,4-c][1,7]naphthyridin-8-yl)carbonyl)-3-morpholinyl)benzonitrile]: the IC50 came to 838 nM in the assay on HCT116 MTAP null cells (HCT116-MTAP null, 144 h) and 32800 nM in the assay with HCT116 WT cells (Homo sapiens, HCT-116, 144 h).
For `C[C@H]1COC[C@@H](c2ccc(C#N)cc2)N1C(=O)c1cc2c3c(c(N)nc2cn1)COC3` (racemic) [Example 389, 4-((3R,5S)-4-((4-amino-1,3-dihydrofuro[3,4-c][1,7]naphthyridin-8-yl)carbonyl)-5-methyl-3-morpholinyl)benzonitrile and 4-((3S,5R)-4-((4-amino-1,3-dihydrofuro[3,4-c][1,7]naphthyridin-8-yl)carbonyl)-5-methyl-3-morpholinyl)benzonitrile] the same measures were 52 nM and 1610 nM.
As to `C[C@@H]1COC[C@H](c2ccc(OC(F)F)c(F)c2)N1C(=O)c1cc2c3c(c(N)nc2cn1)COC3` (racemic) [Example 390, (4-amino-1,3-dihydrofuro[3,4-c][1,7]naphthyridin-8-yl)((3R,5S)-3-(4-(difluoromethoxy)-3-fluorophenyl)-5-methyl-4-morpholinyl)methanone and (4-amino-1,3-dihydrofuro[3,4-c][1,7]naphthyridin-8-yl)((3S,5R)-3-(4-(difluoromethoxy)-3-fluorophenyl)-5-methyl-4-morpholinyl)methanone], the IC50 with HCT116 MTAP null cells was found to be 165 nM; in the assay with HCT116 WT cells, 6360 nM.
On to `CCOc1ccc(C2COCCN2C(=O)c2cc3c4c(c(N)nc3cc2Cl)COC4)nn1` (racemic) [Example 391, (4-amino-7-chloro-1,3-dihydrofuro[3,4-c]quinolin-8-yl)((3R)-3-(6-ethoxy-3-pyridazinyl)-4-morpholinyl)methanone and (4-amino-7-chloro-1,3-dihydrofuro[3,4-c]quinolin-8-yl)((3S)-3-(6-ethoxy-3-pyridazinyl)-4-morpholinyl)methanone], for which the half-maximal inhibitory concentration (IC50) is 73 nM in the assay on HCT116 MTAP null cells (HCT116-MTAP null, 144 h) and 3390 nM with HCT116 WT cells (Homo sapiens, HCT-116, 144 h).
`CCOc1ccc(C2COCCN2C(=O)c2cc3c4c(c(N)nc3cc2F)COC4)nn1` (racemic) [Example 392, (4-amino-7-fluoro-1,3-dihydrofuro[3,4-c]quinolin-8-yl)((3R)-3-(6-ethoxy-3-pyridazinyl)-4-morpholinyl)methanone and (4-amino-7-fluoro-1,3-dihydrofuro[3,4-c]quinolin-8-yl)((3S)-3-(6-ethoxy-3-pyridazinyl)-4-morpholinyl)methanone]: the IC50 in the assay with HCT116 MTAP null cells (HCT116-MTAP null, 144 h) was 216 nM; in the assay with HCT116 WT cells (Homo sapiens, HCT-116, 144 h), over 10000 nM.
